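A five-concentration, 48-hour dose response in 96-well plates underlies each endpoint, interpolated linearly between surrounding concentrations. Abbreviation: GI50, concentration required for 50% inhibition of growth.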 Active and inactive are the calls of the source. Cut-off read from the data, not from the text of the source: active = GI50 up to about 1.1 µM and inactive = higher. Where only a bound is given, the exact number is not on record here.

Experimental findings from ChEMBL document CHEMBL1201862, “PubChem BioAssay data set” (2004) are described below.

Some test systems named below: HCT-116; DU-145; HOP-62; UACC-257; Hs-578T; HCC 2998; IGROV-1; SK-MEL-5; OVCAR-4; MDA-MB-231; COLO 205; SK-OV-3; PC-3; NCI-H460; A498; SK-MEL-28; ACHN; MDA-MB-435; Malme-3M; NCI-H522.
Test in all cases: NCI-60 cell line screen, 48 h

With `NC(CC1=CCC=CC1)C(=O)O` (stereo not drawn), the GI50 with HCT-116 is 55.1 µM (inactive); in the assay on DU-145 it was > 100 µM (inactive); in the assay on HOP-62, > 100 µM (inactive); with UACC-257, > 100 µM (inactive); in the assay with Hs-578T, 50.6 µM (inactive); in the assay with HCC 2998 it was > 100 µM (inactive). Further, the GI50 in the assay with IGROV-1 was 67.8 µM (inactive); in the assay with SK-MEL-5, > 100 µM (inactive); in the assay with OVCAR-4 it was > 100 µM (inactive); in the assay with MDA-MB-231, > 100 µM (inactive); with COLO 205, 38 µM (inactive); in the assay with SK-OV-3, 98.2 µM (inactive). The GI50 was 45.7 µM (inactive) with PC-3; 59.3 µM (inactive) in the assay on NCI-H460; > 100 µM (inactive) in the assay on A498; 80.5 µM (inactive) in the assay on SK-MEL-28; > 100 µM (inactive) in the assay with ACHN; 71.8 µM (inactive) in the assay with MDA-MB-435.
As to `Cc1cc2c(cc1-c1cc3c(cc1C)C(C(C)C)=C(O)C(=O)/C3=C\Nc1c(C)n(C)n(-c3ccccc3)c1=O)/C(=C/Nc1c(C)n(C)n(-c3ccccc3)c1=O)C(=O)C(O)=C2C(C)C`, the GI50 was > 100 µM (inactive) in the assay on HCT-116; > 100 µM (inactive) in the assay on DU-145; 70.1 µM (inactive) in the assay on HOP-62; > 100 µM (inactive) in the assay with UACC-257; > 100 µM (inactive) with Malme-3M; > 100 µM (inactive) in the assay with Hs-578T. In addition, the GI50 in the assay with IGROV-1 is 51.1 µM (inactive); in the assay on SK-MEL-5 it was 49.9 µM (inactive); in the assay with OVCAR-4 it was > 100 µM (inactive); in the assay with MDA-MB-231, 42.1 µM (inactive); in the assay on NCI-H522 it was > 100 µM (inactive); with COLO 205 it was 82.6 µM (inactive). The GI50 in the assay on SK-OV-3 was > 100 µM (inactive); in the assay on PC-3, 66.2 µM (inactive); in the assay with NCI-H460, 54.1 µM (inactive); with A498, > 100 µM (inactive); in the assay with SK-MEL-28, > 100 µM (inactive); in the assay with ACHN it was 47.5 µM (inactive). Besides, the GI50 with MDA-MB-435 is 79.3 µM (inactive).
For `Oc1ccccc1/C=N/Nc1nnc2c3ccccc3c3ccccc3c2n1`, the GI50 is > 100 µM (inactive) in the assay on HCT-116; > 100 µM (inactive) in the assay on DU-145; 42.6 µM (inactive) with HOP-62; 25.2 µM (inactive) in the assay with UACC-257; 59.6 µM (inactive) in the assay on Malme-3M; > 100 µM (inactive) in the assay with Hs-578T. Also, the GI50 with IGROV-1 was 39.9 µM (inactive); with SK-MEL-5, 48.3 µM (inactive); in the assay on OVCAR-4 it was > 100 µM (inactive); in the assay on MDA-MB-231, > 100 µM (inactive); with NCI-H522, 20 µM (inactive); in the assay on COLO 205, > 100 µM (inactive). The GI50 was 58.3 µM (inactive) with SK-OV-3; 80.5 µM (inactive) in the assay with PC-3; 41.8 µM (inactive) with NCI-H460; > 100 µM (inactive) in the assay with A498; > 100 µM (inactive) in the assay on SK-MEL-28; > 100 µM (inactive) in the assay on ACHN. For the same compound, the GI50 with MDA-MB-435 was 28.1 µM (inactive).
As to `C#CCn1c(=O)ccn(/C(=C\C(=O)OCC)C(=O)OCC)c1=O`, the GI50 in the assay on HCT-116 was 5.53 µM (inactive); with DU-145, 15.6 µM (inactive); in the assay with HOP-62, 23.5 µM (inactive); in the assay on UACC-257, 15.3 µM (inactive); in the assay on Malme-3M, 1.89 µM (inactive); in the assay with Hs-578T it was 27.7 µM (inactive). The GI50 with HCC 2998 was 19.9 µM (inactive); in the assay on IGROV-1 it was 9.08 µM (inactive); in the assay with SK-MEL-5, 20.5 µM (inactive); in the assay on OVCAR-4, 2.85 µM (inactive); in the assay with MDA-MB-231 it was 18.1 µM (inactive); with COLO 205 it was 1.11 µM (active). The GI50 was 33 µM (inactive) in the assay with SK-OV-3; 15 µM (inactive) in the assay with PC-3; 2.63 µM (inactive) in the assay with NCI-H460; 17.1 µM (inactive) with A498; 11.7 µM (inactive) in the assay on SK-MEL-28; 1.64 µM (inactive) with ACHN. The GI50 with MDA-MB-435 is 7.33 µM (inactive).
On to `N#CC(c1ccccc1)N(CCc1ccccc1)C(=O)c1ccc(C(=O)N(CCc2ccccc2)C(C#N)c2ccccc2)cc1` (stereo not drawn), for which the GI50 with HCT-116 was 14.3 µM (inactive); with DU-145, 42.6 µM (inactive); in the assay with UACC-257, 18.1 µM (inactive); in the assay on Malme-3M it was 19.3 µM (inactive); in the assay on Hs-578T, 12.9 µM (inactive); in the assay on HCC 2998, 15.3 µM (inactive). Also, the GI50 was 23.9 µM (inactive) in the assay on IGROV-1; 13.5 µM (inactive) in the assay on SK-MEL-5; 18.9 µM (inactive) with OVCAR-4; 24.6 µM (inactive) with MDA-MB-231; 21.9 µM (inactive) in the assay on COLO 205; 31.9 µM (inactive) with SK-OV-3. The GI50 in the assay on PC-3 was 21.7 µM (inactive); in the assay with NCI-H460, 18.5 µM (inactive); with A498, 30.5 µM (inactive); in the assay on SK-MEL-28, 22.8 µM (inactive); in the assay with ACHN, 24 µM (inactive); in the assay on MDA-MB-435 it was 22.9 µM (inactive).
For the compound `COc1ccc(NC(=S)NC(=O)c2ccc3c(c2)Sc2ccccc2O3)c([N+](=O)[O-])c1`, the GI50 is 28.9 µM (inactive) in the assay on HCT-116; 26.9 µM (inactive) in the assay on DU-145; 33 µM (inactive) with HOP-62; 33.1 µM (inactive) in the assay on UACC-257; 14.4 µM (inactive) in the assay on Malme-3M; 14 µM (inactive) with Hs-578T. The GI50 in the assay with IGROV-1 was 18.7 µM (inactive); in the assay on SK-MEL-5, 20.6 µM (inactive); with OVCAR-4, 14.9 µM (inactive); in the assay with MDA-MB-231, 22.9 µM (inactive); in the assay with NCI-H522, 14.9 µM (inactive); in the assay with COLO 205, > 100 µM (inactive). Further, the GI50 in the assay with SK-OV-3 is 29.9 µM (inactive); with PC-3 it was 43.1 µM (inactive); in the assay on NCI-H460, 43.9 µM (inactive); in the assay on A498, 18.5 µM (inactive); in the assay with SK-MEL-28, 40.1 µM (inactive); in the assay with ACHN it was 21.4 µM (inactive). The GI50 in the assay with MDA-MB-435 is 55.8 µM (inactive).
For `O=C1CC(c2cccc(Cl)c2)n2cccc21` (stereo not drawn), the GI50 was > 100 µM (inactive) in the assay with HCT-116; > 100 µM (inactive) with DU-145; > 100 µM (inactive) in the assay with HOP-62; > 100 µM (inactive) in the assay with UACC-257; 31.8 µM (inactive) with Hs-578T; 88.7 µM (inactive) in the assay with HCC 2998. The GI50 in the assay with OVCAR-4 is > 100 µM (inactive); in the assay on MDA-MB-231, > 100 µM (inactive); in the assay on COLO 205, > 100 µM (inactive); with SK-OV-3 it was > 100 µM (inactive); in the assay with PC-3, 49.5 µM (inactive); in the assay with A498, > 100 µM (inactive). Besides, the GI50 with SK-MEL-28, with ACHN and in the assay on MDA-MB-435 was > 100 µM (inactive) each time.
`c1ccc(CC2(c3cc4ccccc4[nH]3)OCCO2)nc1`: the GI50 with HCT-116 was > 100 µM (inactive); with DU-145 it was > 100 µM (inactive); in the assay with HOP-62, > 100 µM (inactive); in the assay on UACC-257, > 100 µM (inactive); in the assay with Malme-3M it was 47.6 µM (inactive); in the assay on Hs-578T it was 51.5 µM (inactive). Moreover, the GI50 in the assay on IGROV-1 was 1.95 µM (inactive); with SK-MEL-5, > 100 µM (inactive); in the assay with MDA-MB-231, > 100 µM (inactive); in the assay on NCI-H522 it was 70.8 µM (inactive); with COLO 205, > 100 µM (inactive); in the assay on SK-OV-3, > 100 µM (inactive). The GI50 in the assay on PC-3, in the assay with NCI-H460, in the assay on A498, with SK-MEL-28, in the assay on ACHN and with MDA-MB-435 was > 100 µM (inactive) each time.
Regarding `CC[N+](C)(CC)Cc1ccccc1[N+](=O)[O-]`, the GI50 was > 100 µM (inactive) with HCT-116; > 100 µM (inactive) in the assay on DU-145; 48.4 µM (inactive) in the assay on HOP-62; > 100 µM (inactive) in the assay with UACC-257; > 100 µM (inactive) in the assay on Malme-3M; > 100 µM (inactive) in the assay on Hs-578T. The GI50 was > 100 µM (inactive) in the assay on IGROV-1; > 100 µM (inactive) in the assay with SK-MEL-5; > 100 µM (inactive) in the assay on OVCAR-4; 72.8 µM (inactive) with MDA-MB-231; > 100 µM (inactive) with NCI-H522; 46 µM (inactive) with COLO 205. Moreover, the GI50 with SK-OV-3 was > 100 µM (inactive); in the assay on PC-3, 44.8 µM (inactive); in the assay with NCI-H460, > 100 µM (inactive); with A498 it was 41.2 µM (inactive); in the assay on SK-MEL-28 it was > 100 µM (inactive); with ACHN, > 100 µM (inactive). Also, in the assay on MDA-MB-435, the GI50 is > 100 µM (inactive).
Turning to `CN(C)/C=N\c1nncc2[nH]nnc12`, the GI50 in the assay with HCT-116, in the assay on DU-145, in the assay with HOP-62, in the assay with UACC-257, in the assay with Hs-578T and in the assay on IGROV-1 was > 100 µM (inactive) in each case. Moreover, the GI50 in the assay on SK-MEL-5, in the assay on MDA-MB-231, in the assay with COLO 205, in the assay on PC-3, in the assay with NCI-H460 and in the assay with A498 was > 100 µM (inactive) in each case. Besides, the GI50 in the assay with SK-MEL-28, in the assay with ACHN and in the assay on MDA-MB-435 was > 100 µM (inactive) throughout.
In the case of `CCOC(=O)[C@H](CO)NC1=C(Cl)C(=O)c2c(O)ccc(O)c2C1=O`, the GI50 in the assay on HCT-116, in the assay with DU-145, in the assay on HOP-62, in the assay with UACC-257, with Malme-3M and with Hs-578T was > 10 µM (inactive) throughout. Further, the GI50 in the assay with HCC 2998, with IGROV-1, in the assay on SK-MEL-5, with OVCAR-4, in the assay with MDA-MB-231 and in the assay with NCI-H522 was > 10 µM (inactive) in each case. In addition, the GI50 in the assay on COLO 205 is 3.87 µM (inactive); with SK-OV-3 it was > 10 µM (inactive); in the assay with PC-3 it was > 10 µM (inactive); in the assay on NCI-H460, > 10 µM (inactive); with SK-MEL-28, > 10 µM (inactive); with ACHN, > 10 µM (inactive). For the same compound, in the assay with MDA-MB-435, the GI50 is > 10 µM (inactive).
